Here are results for three compounds from patent publication US20080145375A1, “Vaccination” (Glaxo Group Limited, priority 2003, published 2008).

Assay [1] concerns mice immunised with p731-RNG (GW825780X). Nature of the assay: IFNγ Elispot after PMID immunisation with p731-RNG, imiquimod at 0 h or 24 h. It is filed as in vivo, mouse. Conditions: application 24 h post immunisation; 2×0.5 ug p731-RNG by PMID; spleens day 14; GAG CD8 peptide AMQMLKETI; FIG. 5. Here is the method: (§1) Plasmid DNA was precipitated onto 2 μm diameter gold beads using calcium chloride and spermidine. Equal amounts of plasmids encoding antigen (p7313OVAcyt, p7313RNG, pVAC7VNTRMuc1, pVAC7VNTRMuc1-PADRE or pVAC7VNTRMuc1-HepB) and p7313GMCSF plasmids were mixed and co-precipitated so that all beads were coated with a mixture of the 2 plasmids ensuring delivery of both plasmids to the same cell. Unless otherwise stated both the antigen and GMCSF were loaded at 0.5 ug/cartridge. Where lower doses of antigen were used the GMCSF loading remained at 0.5 ug and the total DNA on the cartridge was adjusted to 1 ug using p7313empty or pVACempty plasmids. Loaded beads were coated onto Tefzel tubing as described in, for example, Eisenbraum, et al. 1993. DNA Cell Biol. 12:791-797; Pertmer et al, 1996 J. Virol. 70:6119-6125). Particle bombardment was performed using the Accell gene delivery (PCT WO 95/19799; incorporated herein by reference). […]
(§2) Cells were removed from the plates by washing once with water (with 1 minute soak to ensure lysis of cells) and three times with PBS. […] Spots were enumerated using an image analysis system devised by Brian Hayes, Asthma Cell Biology unit, GSK or the AID Elispot reader (Cadama Biomedical, UK). […]
Spleens were harvested at day 14 post immunisation and the cellular responses analysed by IFNγ Elispot following stimulation with a GAG balb/c CD8 9mer peptide: AMQMLKETI.

Assay [2] has as its system C56BI/6 mice immunised with p7313OVAcyt. In words: ELISPOT after primary PMID immunisation with p7313OVAcyt. It is filed as in vivo, mouse. Conditions: delivered singly with p7313 OVAcyt; Day 7 post primary immunisation; FIG. 8. Here is the method:
as §1, with “reference). Female C56BI/6 mice were immunised with 2 administrations of plasmid at each time point as detailed in the results section, one on each side of the abdomen after shaving.” for “reference).”
as §2

Assay [3] deals with mice immunised with pVAC7VNTR muc1. Nature of the assay: Elispot of Muc1 CD4 responses after immunisation with pVAC7VNTR muc1. Format: in vivo, mouse. Conditions: immunised days 0 and 21; day 7 post boost; compared to pVAC 7VNTRMuc1 alone; FIG. 12. Here is the method:
For OVA assays peptide SIINFEKL, a dominant CD8 peptide of OVA, was used in assays at a final concentration of 50 nM to measure CD8 responses and peptide […] was used at a final concentration of 10 μM to measure CD4 responses. For ICS assays Ovalbumin protein was also used to measure CD4 responses at 1 mg/ml. For ELISPOT to detect responses to p7313RNG peptide the CD8 peptide AMQMLKETI was used for stimulation. For detecting responses to Muc1, CD4 peptides […] and […] were used at 10 uM, and CD8 peptide SAPDNRPAL was used at 10 nM. The 9-mer peptides used to follow CD8 responses to Gag and RT in mice were […] (Gag CD8) and YYPDSKDLI (RT CD8) respectively, and CD4 responses to Gag and RT were followed using […] (Gag CD4) and […] (RT CD4) respectively. Peptide […] (Nef 218) was also tested. These peptides were tested at a final concentration of 10 μM. The peptides were obtained from Genemed Synthesis, South San Francisco.
Experiments were carried out to determine the effect of GMCSF and Imiquimod treatment on responses to pVAC7VNTR Muc1. Mice were immunised at days 0 and 21 with pVAC7VNTR muc1. This was delivered alone, co-delivered with p7313GMCSF, or with p7313GMCSF and Imiquimod application at 24 hours post immunisation. Spleens were harvested at day 7 post boost and analysed by Elispot following overnight stimulation with Muc1 CD4 peptides.

For assay [4], the system named is C57/bl6 mice immunised with OVAcyt. Nature of the assay: In vivo cytotoxicity assay (SIINFEKL pulsed CSFE labelled splenocytes). More on the design: species or system mouse. Conditions: 3 mice per group; Day 7, 14, 21 and 42 post immunisation; FIG. 18.
Method: The effect of GMCSF and Imiquimod on cytotoxic responses to p7313OVA after primary immunisation was also measured by in vivo cytotoxicity assays (FIG. 18). C57/bl6 mice were immunised with either OVAcyt or OVAcyt+GMCSF by PMID. At 24 hours post immunisation imiquimod was applied on the immunisation site. At Day 7, 14, 21 and 42 post immunisation mice were injected i.v. with CSFE labelled splenocytes consisting of [sequence] peptide pulsed and unpulsed in equal numbers. After 2 hours the blood was analysed by flow cytometry and the ratio of pulsed to unpulsed cells remaining was calculated to give a numerical value of cytotoxicity.
The test system of a further assay is RIP OVAlo mice. Nature of the assay: Breaking tolerance in RIP OVAlo mice. It is filed as in vivo, mouse. Conditions: four immunisations at 3 weeks intervals; SIINFEKL restimulation. The text has this: RIP OVAlo mice were used to test the potential for tolerance breaking of the GMCSF+Imiquimod combination (FIG. 20). RIP OVAlo mice express ovalbumin (OVA) on the insulin producing beta cells of the pancreas and are therefore tolerant to this molecule. Disruption of this tolerance results in autoimmune destruction of the beta cells leading to diabetes which can be easily monitored by measurement of glycosuria and blood glucose level. RIPova lo and C57/BL6 mice (wt control group) received four immunisations with empty vector or OVAcyt (using PMID), ±GM-CSF (using PMID), and ±Imiquimod. Immunisations were given at 3 weeks intervals. Imiquimod was applied topically on the site of immunisation 24 h after PMID. 7 Days after the last immunisation splenocytes and serum samples were taken. […] The functional test for tolerance breaking in this model is development of diabetes. This is measured by urine glucose levels.

For assay [5], the system named is TLRs 1-9 mRNA in monocyte derived DC. In words: Taqman analysis of TLR expression on IFNγ treated DC. Format: cell-based, human. Conditions: DC treated with IFNγ for 24 hours; 3 healthy donors; FIG. 6. As to the method:
Monocytes were isolated from the PBMC of 3 healthy donors and cultured with IL-4 & GM-CSF for 7 days to induce differentiation to immature DC. The DC were then treated with IFNγ for 24 hours. mRNA expression of TLRs 1-9 was then measured by Taqman. In contrast to published reports we have shown that low levels of TLR7 are constitutively expressed on monocyte derived DC. […] The increase in TLR7 expression at 24 hours post stimulation in vitro provides an explanation for the results in FIG. 5 showing the good effect of Imiquimod at 24 hours post immunisation.
(In general: In qPCR the cycle at which signal appears reflects the starting amount.)

For the compound `CC(C)Cn1cnc2c(N)nc3ccccc3c21` [Imiquimod, imiquimod], the “adjuvant effect on cellular responses, IFNγ Elispot” value in assay [1] is “good adjuvant effect”. For the same compound, the “adjuvant effect in Elispot assays” value in assay [2] is recorded as “adjuvant effects”. Moreover, the “Muc1 CD4 responses (Elispot)” value in assay [3] is “improved CD4 responses”. Moreover, the in vivo cytotoxicity result in assay [4] is given as “clear benefit over OVA alone”. Moreover, the “CD8 responses (IFNγ and IL2 production in CD8+ T cells)” value in the assay with RIP OVAlo mice is on record as “there are responses”.

Take GMCSF: the “adjuvant effect in Elispot assays” value in assay [2] is given as “adjuvant effects”. Also, the “Muc1 CD4 responses (Elispot)” value in assay [3] is “improved CD4 responses”. Also, in the assay on RIP OVAlo mice, the “CD8 responses (IFNγ and IL2 production in CD8+ T cells)” value is reported as “there are responses”.

For “IFNγ: interferon-gamma used to treat monocyte derived DC for 24 hours”, in assay [5], the “mRNA expression of TLR2” value is “upregulated but to a lesser extent”; the “mRNA expression of TLR7 and TLR8” value was “expression of TLR8 and increased levels of expression of TLR7 were found in all 3 donors”.
